In article doi:10.1101/2024.06.05.597555v1 (biorxiv, 2024):
Where two headings read alike, the source gives them in different places.

Key:
[1] = target: T1, NS2B(H)-NS3pro (DENV-2 NS2B-NS3 protease) (Dengue virus 2 Thailand/NGS-C/1944, UniProt P14340); experiment: biochemical; settings: read-out: % inhibition
T1 sequence (P14340 1394-1433 limits assumed): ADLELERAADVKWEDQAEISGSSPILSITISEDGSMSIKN
T1 sequence (P14340 1476-1660 limits assumed): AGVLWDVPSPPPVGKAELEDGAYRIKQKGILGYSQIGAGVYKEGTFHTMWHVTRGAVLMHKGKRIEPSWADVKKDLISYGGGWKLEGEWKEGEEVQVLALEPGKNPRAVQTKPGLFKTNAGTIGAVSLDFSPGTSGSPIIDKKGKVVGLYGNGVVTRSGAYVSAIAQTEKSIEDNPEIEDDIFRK

DENV-2 = experiment: microbe, parasite or virus in culture; settings: Dengue virus, DENV2, Vero, 48 h, read-out: % inhibition
[2] = target: T1, NS2B(H)-NS3pro (DENV-2 NS2B-NS3 protease); experiment: biochemical; settings: read-out: % inhibition; remark: listed apart in the source
[3] = target: T1, NS2B(H)-NS3pro (DENV-2 NS2B-NS3 protease); experiment: fluorometric protease assay, AMC substrate; format: biochemical; settings: read-out: % inhibition at 50 μM
[4] = target: T1, NS2B(H)-NS3pro (DENV-2 NS2B-NS3 protease); settings: read-out: IC50 (C7.5-HEPES AMC); AMC substrate, HEPES pH 7.5, CHAPS; inhibitor
[5] = target: T2, DENV2proHeLa NS2B-NS3 protease (Dengue virus 2 Thailand/16681/84, UniProt P29990); experiment: cell-based; design: species or system DENV2proHeLa (HeLa); settings: HeLa, read-out: % inhibition
[6] = target: T2, DENV2proHeLa NS2B-NS3 protease; experiment: cell-based; design: species or system DENV2proHeLa (HeLa)
in vitro [7] = experiment: in vitro; design: species or system DENV2proHeLa (HeLa); settings: human, denv2prohela cells
[8] = target: T1, NS2B(H)-NS3pro (DENV-2 NS2B-NS3 protease); experiment: biochemical; settings: read-out: % inhibition; remark: listed apart in the source
[9] = target: T2, DENV2proHeLa NS2B-NS3 protease; experiment: cell-based; design: species or system DENV2proHeLa (HeLa); settings: HeLa, read-out: % inhibition; remark: listed apart in the source
[10] = target: T2, DENV2proHeLa NS2B-NS3 protease; experiment: cell-based; design: species or system DENV2proHeLa (HeLa); settings: read-out: DENV2proHeLa EC50; inhibitor
in vitro [11] = experiment: in vitro; design: species or system DENV2proHeLa (HeLa); settings: human, denv2prohela cells; remark: listed apart in the source
[12] = target: T1, NS2B(H)-NS3pro (DENV-2 NS2B-NS3 protease); experiment: fluorometric protease assay, AMC substrate; format: biochemical; settings: pH 7.5, HEPES, CHAPS; substrate Bz-nKRR-AMC
[13] = target: T2, DENV2proHeLa NS2B-NS3 protease; experiment: cell-based
[14] = target: T1, NS2B(H)-NS3pro (DENV-2 NS2B-NS3 protease); experiment: biochemical; settings: read-out: % inhibition; remark: listed apart in the source
[15] = target: T2, DENV2proHeLa NS2B-NS3 protease; experiment: cell-based; design: species or system DENV2proHeLa (HeLa); settings: HeLa, read-out: % inhibition; remark: listed apart in the source
in vitro [16] = experiment: in vitro; design: species or system DENV2proHeLa (HeLa); settings: human, denv2prohela cells; remark: listed apart in the source

T2 sequence (P29990 1476-2093 limits assumed): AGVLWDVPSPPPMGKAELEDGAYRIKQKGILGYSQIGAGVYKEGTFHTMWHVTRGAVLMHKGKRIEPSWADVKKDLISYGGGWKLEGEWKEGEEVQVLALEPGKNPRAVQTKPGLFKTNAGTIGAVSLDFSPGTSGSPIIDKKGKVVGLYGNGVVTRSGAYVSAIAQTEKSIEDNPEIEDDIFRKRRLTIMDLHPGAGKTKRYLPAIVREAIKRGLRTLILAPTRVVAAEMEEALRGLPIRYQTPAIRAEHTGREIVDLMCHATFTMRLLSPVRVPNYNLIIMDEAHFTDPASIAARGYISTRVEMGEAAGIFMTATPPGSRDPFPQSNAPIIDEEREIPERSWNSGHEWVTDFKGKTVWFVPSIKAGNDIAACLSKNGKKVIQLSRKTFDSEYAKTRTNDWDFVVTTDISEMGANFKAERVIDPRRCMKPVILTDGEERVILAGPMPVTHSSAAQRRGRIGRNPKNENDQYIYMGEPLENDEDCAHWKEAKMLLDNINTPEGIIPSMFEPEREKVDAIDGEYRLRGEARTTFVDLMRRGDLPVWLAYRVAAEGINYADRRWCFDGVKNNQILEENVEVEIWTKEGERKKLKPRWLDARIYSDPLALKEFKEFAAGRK
T2 sequence (P29990 1346-1475 partner limits assumed): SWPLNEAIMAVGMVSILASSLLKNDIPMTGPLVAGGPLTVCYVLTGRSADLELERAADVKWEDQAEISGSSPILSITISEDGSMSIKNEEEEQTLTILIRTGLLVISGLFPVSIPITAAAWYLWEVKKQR

Work on `CCCCCC(=O)N[C@H](C(=O)NCc1ccc(NC(=N)N)cc1)c1ccc(OCc2ccccc2)cc1` [NK-189] yielded an inhibition at 50 µM [1] of 97%, an inhibition at 25 µM (DENV-2) of 21% and an inhibition at 50 µM [2] of 95%.

Work on `CCCCCC(=O)N[C@H](C(=O)Nc1cccc(C(N)=O)c1)c1ccc(OCc2ccccc2)cc1` [compound 2] yielded an inhibition at 50 µM [3] of 64 ± 5.1%.

`CCCCC(CC)C(=O)N[C@H](C(=O)Nc1cccc(C(N)=O)c1)c1ccc(OCc2ccccc2)cc1` (stereo partly drawn) [compound 20, 20] showed an IC50 [4] of 22 µM, an inhibition at 12.5 µM [5] of 63% and an EC50 ([6]; read-out: DENV2proHeLa EC50, inhibitor) of 11 µM. The CC50 (in vitro [7]) was over 50 µM and the inhibition at 25 µM (DENV-2) was 90%.

`NC(=O)c1cccc(NC(=O)[C@@H](NC(=O)C2COc3ccccc3C2)c2ccc(OCc3ccccc3)cc2)c1` (stereo partly drawn) [compound 26, 26] showed an inhibition at 50 µM [8] of 88%, an IC50 [4] of 16 µM and an inhibition at 12.5 µM [5] of 77%. The EC50 [6] was 6.8 µM and the CC50 (in vitro [7]) was over 50 µM.

For `COc1cc(CC(=O)N[C@H](C(=O)Nc2cccc(C(N)=O)c2)c2ccc(OCc3ccccc3)cc2)cc(OC)c1OC` [compound 31], the inhibition at 50 µM [3] was 76%, the inhibition at 12.5 µM [9] was 75% and the EC50 [10] was 12 µM. The CC50 (in vitro [11]) was over 50 µM and the inhibition at 25 µM (DENV-2) was 11%.

For `NC(=O)c1cccc(NC(=O)C(Cc2ccc(OCc3ccc4ccccc4c3)cc2)NC(=O)c2ccc(Oc3ccccc3)cc2)c1` (stereo not drawn) [compound 63], the IC50 [12] was 4.8 µM, the EC50 [13] was 5.1 µM and the inhibition at 50 µM [14] was 100%. For the same compound, the inhibition at 12.5 µM [15] was 82% and the CC50 (in vitro [16]) was 16 µM.

Work on `CC(C(=O)NC(Cc1c[nH]c2ccccc12)C(=O)Nc1cccc(C(N)=O)c1)c1ccc2c(c1)[nH]c1ccc(Cl)cc12` (stereo not drawn) [compound 67, 67] yielded an inhibition at 50 µM [14] of 91%, an inhibition at 12.5 µM [15] of 91% and a CC50 (in vitro [16]) of 16 µM.

With `NC(=O)c1cccc(NC(=O)C(Cc2c[nH]c3ccccc23)NC(=O)c2ccc(Oc3ccccc3)cc2)c1` (stereo not drawn) [compound 69, 69] the inhibition at 50 µM [14] was 80%, the inhibition at 12.5 µM [15] was 65% and the CC50 (in vitro [16]) was over 50 µM.
